Test results: article PMC12250965, “Design and Synthesis of Sulfonium and Selenonium Derivatives Bearing 3′,5′-O-Benzylidene Acetal Side Chain Structure as Potent α-Glucosidase Inhibitors” (Molecules, 2025)
Converted amounts (≈) assume the structure as drawn. Read-outs that look alike come from different tables or passages of the source. Blank lines part the entries; values can stand above or below the compound they belong to.

What was measured:
[1] = molecular target: T1, rat intestinal sucrase (Rattus norvegicus, UniProt P23739); assay: Inhibition-kinetic study (Lineweaver–Burk), sucrase; type: biochemical
T1 construct: rat small intestinal brush border membrane vesicles were first prepared; from tissue; host or cells: rat small intestine, brush border membrane vesicles
Method: (§1) In order to explore the inhibitory mechanism of the α-glucosidase by this family of compounds, enzyme kinetic assays were conducted on 20a, 20c, and 10, followed by a detailed kinetic analysis using the Lineweaver–Burk plots. (Figure 3) The small intestinal brush border membrane vesicles were incubated with varying concentrations of maltose (3.27 mg/mL) for maltase assays and sucrose (52.37 mg/mL) for sucrase assays.
(§2) For kinetic analyses of maltase and sucrase by compounds (20a, 20c, and 10), the enzyme and test samples (1.0 mg/mL for maltase and 0.2 mg/mL for sucrase) were incubated with increasing concentrations of maltose (2.5, 5, 10, 20, 50, 100 μM) and sucrose (5, 10, 20, 50, 100, 1000 μM) at 37 °C for 30 min. The tube was immediately immersed in boiling water for 2 min to stop the reaction, then cooled with water. The glucose concentration was determined by the glucose-oxidase method. […] The Lineweaver–Burk equation follows as: 1/V=Km/Vmax×[…]
(§3) Ki values for each inhibitor were determined by the equation: Ki=[I]×Km/[[…]−Km]

[2] = tested on: HELF, a human embryonic lung fibroblast cell line; assay: MTT cytotoxicity assay on HELF cells; type: cell-based; conditions: different cell lines
Method: The cytotoxicity of selected sulfonium salts (20a, 20c, and 10) was then evaluated via the 3-[4,5-dimethylthiazol-2-yl]-2,5-diphenyl-tetrazolium bromide (MTT) assay against different cell lines.
Briefly, the HELF-adherent cells were cultured in a 96-well plate overnight in a CO2 environment at 37 °C. Supernatant was removed, and 100 μL serially diluted compounds with complete medium DMEM supplemented with 10% (v/v) fetal bovine serum, penicillin (100 units/mL), and streptomycin (100 μg/mL) were added to each well. After the incubation, the culture medium was aspirated carefully, and 50 μL of MTT solution (2mg/mL PBS) was added to each well and further incubated for 4h. After this, MTT solution was aspirated, and cells were PBS-washed once, and 100 μL of DMSO was added to dissolve the blue insoluble MTT formazan produced by the action of mitochondrial dehydrogenase. The plate was agitated at room temperature for 15 min and then read at 570 nm by using a microplate reader. The percentage of viable cells was calculated as the relative ratio of optical densities.

[3] = tested on: sucrose-loaded mice; assay: Sucrose loading test (hypoglycemic effect); type: in vivo, ICR mice; conditions: sucrose loading […] p.o.
Method: Research has shown a strong association between the 2 h postprandial blood glucose level and the risk of cardiovascular events, diabetic microvascular complications such as retinopathy, and the progression of macrovascular diseases. […] Considering this underlying pathological process, α-glucosidase inhibitors, which efficiently regulate postprandial glucose fluctuations, hold significant therapeutic promise for alleviating diabetes-related complications. […] Subsequently, doses were reduced to 1.0 mg/kg.
(§4) The animal experimental protocols in this study were approved by the Experimental Animal Center of Shanghai Institute of Materia Medica (Shanghai, China). Male ICR (Institute of Cancer Research) mice (29−33 g) after an overnight fast were used for acute maltose and sucrose loading tests. In the maltose loading test, maltose (2.0 mpk of body weight) and the inhibitors and voglibose were dissolved in distillation−distillation water and administered to the mice via a stomach tube. A control group was loaded with distillation−distillation water. In the sucrose loading test, sucrose (2.5 g/kg of body weight) and the inhibitor miglitol were dissolved in distillation−distillation water and administered to the mice via a stomach tube. A control group was loaded with distillation−distillation water. Blood samples for glucose measurements were obtained from the tail vein at 0, 15, 30, 60, and 120 min after maltose and sucrose loading. The blood glucose levels were measured by a portable kit, StatStrip Xpress (Nova Biomedical Co., Ltd., Waltham, MA, USA). The AUC over was calculated by the trapezoidal method.

[4] = tested on: rat intestinal maltase; assay: Inhibition-kinetic study (Lineweaver–Burk), maltase; type: biochemical; conditions: for Ki Maltase (Km = 3.0 mM): small intestinal α-glucosidase, Lineweaver–Burk
Method: as §1, §2, §3

[5] = tested on: maltose-loaded mice; assay: Maltose loading test (hypoglycemic effect); type: in vivo, ICR mice; conditions: maltose loading 2.0 g/kg, 1.0 mpk
Method: A maltose loading test on compounds 10, 20c, neoponkoranol, and positive control (voglibose) was conducted to further evaluate their in vivo hypoglycemic effects against maltase.
as §4, with “In the maltose loading test, maltose (2.0 mpk of body weight) and the inhibitors and voglibose were dissolved in distillation−distillation water and administered to the mice via a stomach tube.” left out

[6] = molecular target: T1, rat intestinal sucrase; assay: In vitro α-glucosidase inhibition assay, rat intestinal sucrase; type: biochemical
Method: (§5) The testing method previously described was modified and used. Thus, rat small intestinal brush border membrane vesicles were first prepared, and its suspension in 0.1 M maleate buffer (pH = 6.0) was used as small intestinal α-glucosidases of maltase and sucrase. A test compound was dissolved in dimethylsulfoxide (DMSO), and the resulting solution was diluted with 0.1 M maleate buffer to prepare the test compound solution (concentration of DMSO: 10%). The substrate solution in maleate buffer ([…], 50 μL), a test compound solution (25 μL), and the enzyme solution (25 μL) were mixed and incubated at 37 °C for 30 min. After incubation, the solution was immediately heated by boiling water for 2 min to stop the reaction, and the solution was mixed with water (150 μL). Glucose concentration was determined by the glucose-oxidase method. […] The IC50 value was determined graphically by a plot of percent inhibition versus log of the test compound.

[7] = molecular target: rat intestinal maltase; assay: In vitro α-glucosidase inhibition assay, rat intestinal maltase; type: biochemical; conditions: rat small intestinal brush border membrane vesicles; maltose substrate; mean ± SD (n = 3); read-out: IC50 against maltase
Method: as §5

[8] = molecular target: rat intestinal maltase; conditions: literature value ^[a]; read-out: IC50 against maltase (converted); cited from earlier work
[9] = rat small intestinal brush border membrane vesicles, sucrose substrate, mean ± SD (n = 3), read-out: IC50 against sucrase

T1 sequence (P23739 whole entry): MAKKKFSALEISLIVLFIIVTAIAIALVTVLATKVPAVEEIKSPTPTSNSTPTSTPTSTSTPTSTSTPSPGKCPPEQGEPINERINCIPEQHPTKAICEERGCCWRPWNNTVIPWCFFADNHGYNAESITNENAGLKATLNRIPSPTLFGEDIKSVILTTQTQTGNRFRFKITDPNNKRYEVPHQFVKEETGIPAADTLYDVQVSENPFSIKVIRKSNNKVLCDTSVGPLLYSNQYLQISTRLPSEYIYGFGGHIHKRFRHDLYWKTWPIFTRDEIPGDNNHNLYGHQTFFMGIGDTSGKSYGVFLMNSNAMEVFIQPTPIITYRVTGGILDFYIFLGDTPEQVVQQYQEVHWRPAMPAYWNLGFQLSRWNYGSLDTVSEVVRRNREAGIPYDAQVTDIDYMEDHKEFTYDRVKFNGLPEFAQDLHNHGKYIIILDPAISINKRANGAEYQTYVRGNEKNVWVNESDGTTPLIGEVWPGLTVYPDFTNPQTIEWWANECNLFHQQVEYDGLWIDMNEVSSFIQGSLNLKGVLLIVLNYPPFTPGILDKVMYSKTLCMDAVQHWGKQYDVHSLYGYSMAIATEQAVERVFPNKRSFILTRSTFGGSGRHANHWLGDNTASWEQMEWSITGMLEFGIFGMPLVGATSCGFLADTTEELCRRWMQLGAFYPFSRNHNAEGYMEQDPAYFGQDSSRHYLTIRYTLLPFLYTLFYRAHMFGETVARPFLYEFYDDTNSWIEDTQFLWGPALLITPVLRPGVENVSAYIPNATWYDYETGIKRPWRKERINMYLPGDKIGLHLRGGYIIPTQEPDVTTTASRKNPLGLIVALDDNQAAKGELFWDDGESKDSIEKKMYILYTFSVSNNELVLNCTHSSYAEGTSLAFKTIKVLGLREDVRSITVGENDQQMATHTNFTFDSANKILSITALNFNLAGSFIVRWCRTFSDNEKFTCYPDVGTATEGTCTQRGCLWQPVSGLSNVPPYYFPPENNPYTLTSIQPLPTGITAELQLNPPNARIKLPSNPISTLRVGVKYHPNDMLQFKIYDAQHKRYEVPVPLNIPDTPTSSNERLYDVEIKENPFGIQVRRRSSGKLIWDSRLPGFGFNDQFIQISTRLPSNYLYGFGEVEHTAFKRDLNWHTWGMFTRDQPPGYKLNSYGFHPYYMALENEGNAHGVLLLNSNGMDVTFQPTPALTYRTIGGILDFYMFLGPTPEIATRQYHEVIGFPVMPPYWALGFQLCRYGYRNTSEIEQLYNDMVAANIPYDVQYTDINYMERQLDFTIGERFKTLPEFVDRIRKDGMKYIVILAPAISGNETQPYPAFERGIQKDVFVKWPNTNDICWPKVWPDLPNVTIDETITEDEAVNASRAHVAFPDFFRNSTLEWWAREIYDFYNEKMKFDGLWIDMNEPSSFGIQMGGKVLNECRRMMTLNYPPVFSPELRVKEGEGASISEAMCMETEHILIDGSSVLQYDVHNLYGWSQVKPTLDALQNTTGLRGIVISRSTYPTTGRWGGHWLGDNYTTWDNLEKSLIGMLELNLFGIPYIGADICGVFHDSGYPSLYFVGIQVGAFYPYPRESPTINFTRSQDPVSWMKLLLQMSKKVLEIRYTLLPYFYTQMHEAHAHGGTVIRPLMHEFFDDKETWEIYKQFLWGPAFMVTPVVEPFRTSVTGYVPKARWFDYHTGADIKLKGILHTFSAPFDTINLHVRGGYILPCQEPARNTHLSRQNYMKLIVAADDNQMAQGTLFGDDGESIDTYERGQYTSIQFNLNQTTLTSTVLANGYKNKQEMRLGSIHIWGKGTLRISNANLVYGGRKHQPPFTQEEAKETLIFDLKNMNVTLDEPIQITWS

SMILES: O=[N+]([O-])c1ccccc1C1OC[C@@H](O)[C@@H]([C@H](O)C[S@@+]2C[C@@H](O)[C@H](O)[C@H]2CO)O1 (some centres unmarked) [compound 10]
- type of inhibition, sucrase ([1]; Lineweaver–Burk plots): fully competitive
- Ki ([1]; small intestinal α-glucosidase, Lineweaver–Burk, read-out: Ki Sucrase (Km = 23.56 mM) (converted)): 693 nM
- cytotoxicity (MTT assay) [2]: non-toxic
- Declined Rate of Blood Glucose Levels, 15 min ([3]; 1.0 mpk): 41.8%
- Declined Rate of Blood Glucose Levels, 30 min ([3]; 1.0 mpk): 43.00%
- Declined Rate of Blood Glucose Levels, 60 min ([3]; 1.0 mpk): 39.1%
- Declined Rate of AUC ([3]; 1.0 mpk): 35.2%
- Declined Rate of Blood Glucose Levels, 15 min ([3]; 10.0 mpk): 48.0%
- Declined Rate of Blood Glucose Levels, 30 min ([3]; 10.0 mpk): 54.6%
- Declined Rate of Blood Glucose Levels, 60 min ([3]; 10.0 mpk): 52.5%
- Declined Rate of AUC ([3]; 10.0 mpk): 46.6%
- type of inhibition, maltase ([4]; Lineweaver–Burk plots): fully competitive
- Ki Maltase (Km = 3.0 mM) [4]: 0.42 µg/mL
- Declined Rate of Blood Glucose Levels, 15 min ([5]; 1 mg/kg): 52.8%
- Declined Rate of Blood Glucose Levels, 30 min ([5]; 1 mg/kg): 55.0%
- Declined Rate of Blood Glucose Levels, 60 min ([5]; 1 mg/kg): 47.2%
- Declined Rate of AUC [5]: 43.5%

SMILES: OCC(CO)N[C@H]1C[C@](O)(CO)[C@@H](O)[C@H](O)[C@H]1O [voglibose]
- IC50 [6, 9]: 350 nM
- IC50 [7]: 1450 nM
- IC50 [8]: 1500 nM
- Declined Rate of Blood Glucose Levels, 15 min [5]: 49.2%
- Declined Rate of Blood Glucose Levels, 30 min [5]: 53.7%
- Declined Rate of Blood Glucose Levels, 60 min ([5]; 1 mg/kg): 40.1%
- Declined Rate of AUC ([5]; 1 mg/kg): 39.8%

SMILES: OC[C@@H]1[C@@H](O)[C@H](O)C[Se@+]1C[C@@H](O)[C@H]1OC(c2cc(F)cc(Cl)c2)OC[C@H]1O (stereo partly drawn) [20h, (1S,2R,3S,4S)-1-((2S)-2-((4S,5R)-2-(3-Chloro-5-fluorophenyl)-5-hydroxy-1,3-dioxan-4-yl)-2-hydroxyethyl)-3,4-dihydroxy-2-(hydroxymethyl)tetrahydro-1H-selenophen-1-ium chloride]
- IC50 [6]: 1960 ± 250 nM
- IC50 [7]: 3670 ± 890 nM

SMILES: OCC1C(O)C(O)C[S+]1CC(O)C1OC(c2cc(Cl)ccc2Cl)OCC1O [19c, 1,4-Dideoxy-1,4-[(R)-(5-deoxy-1,3-O-(2,5-dichlorobenzylidene)-D-arabinitol-5-yl)episulfoniumylidene]-D-arabinitol chloride]
- IC50 [6, 9]: 800 ± 120 nM
- IC50 [7]: 550 ± 50 nM

SMILES: OC[C@@H]1[C@@H](O)[C@H](O)C[Se@+]1C[C@@H](O)[C@H]1OC(c2ccc(Cl)c(Cl)c2)OC[C@H]1O (stereo partly drawn) [20f, (1S,2R,3S,4S)-1-((2S)-2-((4S,5R)-2-(3,4-Dichlorophenyl)-5-hydroxy-1,3-dioxan-4-yl)-2-hydroxyethyl)-3,4-dihydroxy-2-(hydroxymethyl)tetrahydro-1H-selenophen-1-ium chloride]
- IC50 [6]: 330 ± 40 nM
- IC50 [7]: 470 ± 110 nM

SMILES: OC[C@@H]1[C@@H](O)[C@H](O)C[Se@+]1C[C@@H](O)[C@H]1OC(c2ccc(Cl)cc2Cl)OC[C@H]1O (stereo partly drawn) [20b, (1S,2R,3S,4S)-1-((2S)-2-((4S,5R)-2-(2,4-Dichlorophenyl)-5-hydroxy-1,3-dioxan-4-yl)-2-hydroxyethyl)-3,4-dihydroxy-2-(hydroxymethyl)tetrahydro-1H-selenophen-1-ium chloride]
- IC50 [6]: 220 ± 60 nM
- IC50 [7]: 260 ± 80 nM

SMILES: OCC1C(O)C(O)C[S+]1CC(O)C1OC(c2cc(Cl)cc(Cl)c2)OCC1O [19g, 1,4-Dideoxy-1,4-[(R)-(5-deoxy-1,3-O-(3,5-dichlorobenzylidene)-D-arabinitol-5-yl)episulfoniumylidene]-D-arabinitol chloride]
- IC50 [6, 9]: 5500 ± 620 nM
- IC50 [7]: 4900 ± 250 nM

SMILES: OC[C@@H]1[C@@H](O)[C@H](O)C[Se@+]1C[C@@H](O)[C@H]1OC(c2cccc(Br)c2)OC[C@H]1O (stereo partly drawn) [20l, (1S,2R,3S,4S)-1-((2S)-2-((4S,5R)-2-(3-Bromophenyl)-5-hydroxy-1,3-dioxan-4-yl)-2-hydroxyethyl)-3,4-dihydroxy-2-(hydroxymethyl)tetrahydro-1H-selenophen-1-ium chloride]
- IC50 [6]: 210 ± 20 nM
- IC50 [7]: 690 ± 50 nM

Further lines, with some results ahead:

- IC50 [7]: 3500 nM
- Ki Maltase (Km = 3.0 mM) [4]: 1.98 µg/mL (≈ 3.07 µM)
SMILES: C[C@H]1O[C@H](O[C@H]2[C@H](O)[C@@H](O)[C@@H](O[C@H]3[C@H](O)[C@@H](O)C(O)O[C@@H]3CO)O[C@@H]2CO)[C@H](O)[C@@H](O)[C@@H]1N[C@H]1C=C(CO)[C@@H](O)[C@H](O)[C@H]1O (some centres unmarked) [acarbose]
- Declined Rate of Blood Glucose Levels, 15 min ([3]; 20.0 mpk, 20 mg/kg): 45.7%
- Declined Rate of Blood Glucose Levels, 30 min ([3]; 20.0 mpk, 20 mg/kg): 48.4%
- Declined Rate of Blood Glucose Levels, 60 min ([3]; 20.0 mpk): 44.3%
- Declined Rate of AUC ([3]; 20.0 mpk, 20 mg/kg): 40.5%
- IC50 [8]: 3200 nM

- IC50 [6, 9]: 3500 ± 60 nM
- IC50 [7]: 4100 ± 80 nM
SMILES: OCC1C(O)C(O)C[S+]1CC(O)C1OC(c2ccc(Br)cc2)OCC1O [19m, 1,4-Dideoxy-1,4-[(R)-(5-deoxy-1,3-O-(p-bromobenzylidene)-D-arabinitol-5-yl)episulfoniumylidene]-D-arabinitol chloride]

- IC50 [6, 9]: 7900 ± 1600 nM
- IC50 [7]: 9700 ± 740 nM
SMILES: OCC1C(O)C(O)C[S+]1CC(O)C1OC(c2cccc(Br)c2)OCC1O [19l, 1,4-Dideoxy-1,4-[(R)-(5-deoxy-1,3-O-(m-bromobenzylidene)-D-arabinitol-5-yl)episulfoniumylidene]-D-arabinitol chloride]
